Our source for the IC50 values is patent US10138247B2, “7-(morpholin-4-yl)pyrazole[1,5-A]pyrimidine derivatives as PI3 kinase inhibitors” (priority 2015, dated 2018).

Read-outs that look alike come from different tables or passages of the source. Where only a bound is given, the exact number is not on record here.

Holding throughout (format): biochemical
For one assay, the target named is T1, PI3Kα (Homo sapiens, UniProt P42336).
T1 construct: purchased Carna Biosciences
As to the kind of experiment: PI3K kinases inhibition in vitro (ADP-Glo), PI3Kα. As to the method:
(§1) Tested compounds were dissolved in 100% DMSO, and thus obtained solutions were serially diluted in 1× reaction buffer. Recombinant kinase was diluted in a reaction mixture comprising 5× reaction buffer, substrate (1 mM sodium diacetate 4,5-bisphosphate phosphatydylinositol (PIP2) solution in 40 mM Tris buffer), and water. To the wells in a 96-wells plate, 5 μl of compounds solutions and 15 μl of the kinase solution in the reaction mixture were added. To initiate interaction of tested chemical compounds with the enzyme, the plate was incubated for 10 minutes at suitable temperature in a plate thermostat with orbital shaking at 600 rpm. Negative control wells contained all above reagents except tested compound and kinase, and positive control wells contained all above reagents except tested compounds. Enzymatic reaction was initiated by adding 5 μl of 150 μM ATP solution, subsequently the plate was incubated for 1 hour at 25° C. or 30° C. (depending on PI3K isoform tested) in plate thermostat with orbital shaking of the plate contents at 600 rpm. Reaction conditions are presented below in Table 12.
(§2) Detection of ADP formed in the enzymatic reaction was then performed using ADP-Glo Kinase Assay (Promega). To the wells of a 96-well plate 25 μl of ADP-Glo Reagent were added, and the plate was incubated for 40 minutes at 25° C. in a plate thermostat with orbital shaking at 600 rpm. Then to the wells of 96-well plate 50 μl of Kinase Detection Reagent were added and the plate was incubated for 40 minutes at 25° C. in a plate thermostat with orbital shaking at 600 rpm. After incubation time, luminescence intensity in a well was measured by Victor Light luminometer (Perkin Elmer, Inc.).
(§3) IC50 values were determined on the basis of luminescence intensity measurements in wells containing tested compounds at different concentrations and in control wells. These values were calculated with Graph Pad 5.03 software by fitting the curve using non-linear regression. Each compound was tested at least in quadruplicates (4 wells) on two 96-well plates using at least 4 wells of each of the controls.
In general terms: In ADP-Glo the light output rises with the ADP produced.

Another assay addresses T2, PI3Kδ (Homo sapiens, UniProt O00329).
T2 construct: purchased Merck Millipore
As to the kind of experiment: PI3K kinases inhibition in vitro (ADP-Glo), PI3Kδ. The procedure: as §1, §2, §3

In a further assay the target is T3, PI3Kβ (Homo sapiens, UniProt P42338).
T3 construct: purchased Merck Millipore
Kind of assay: PI3K kinases inhibition in vitro (ADP-Glo), PI3Kβ. As to the method:
as §1, §2, §3

A further assay has as its target T4, PI3Kγ (Homo sapiens, UniProt P48736).
T4 construct: purchased Merck Millipore
As to the kind of experiment: PI3K kinases inhibition in vitro (ADP-Glo), PI3Kγ. The procedure:
as §1, §2, §3

The mark [1] stands for this setting: averaged, recombinant kinase, 25° C., 1 h, PIP2 30 μM, read-out: PI3Kδ IC50.
The mark [2] stands for this setting: averaged, recombinant kinase, 30° C., 1 h, PIP2 50 μM, read-out: PI3Kβ IC50.
Where [3] appears, read: averaged, recombinant kinase, 30° C., 1 h, PIP2 50 μM, read-out: PI3Kγ IC50.

T2 sequence (O00329 whole entry): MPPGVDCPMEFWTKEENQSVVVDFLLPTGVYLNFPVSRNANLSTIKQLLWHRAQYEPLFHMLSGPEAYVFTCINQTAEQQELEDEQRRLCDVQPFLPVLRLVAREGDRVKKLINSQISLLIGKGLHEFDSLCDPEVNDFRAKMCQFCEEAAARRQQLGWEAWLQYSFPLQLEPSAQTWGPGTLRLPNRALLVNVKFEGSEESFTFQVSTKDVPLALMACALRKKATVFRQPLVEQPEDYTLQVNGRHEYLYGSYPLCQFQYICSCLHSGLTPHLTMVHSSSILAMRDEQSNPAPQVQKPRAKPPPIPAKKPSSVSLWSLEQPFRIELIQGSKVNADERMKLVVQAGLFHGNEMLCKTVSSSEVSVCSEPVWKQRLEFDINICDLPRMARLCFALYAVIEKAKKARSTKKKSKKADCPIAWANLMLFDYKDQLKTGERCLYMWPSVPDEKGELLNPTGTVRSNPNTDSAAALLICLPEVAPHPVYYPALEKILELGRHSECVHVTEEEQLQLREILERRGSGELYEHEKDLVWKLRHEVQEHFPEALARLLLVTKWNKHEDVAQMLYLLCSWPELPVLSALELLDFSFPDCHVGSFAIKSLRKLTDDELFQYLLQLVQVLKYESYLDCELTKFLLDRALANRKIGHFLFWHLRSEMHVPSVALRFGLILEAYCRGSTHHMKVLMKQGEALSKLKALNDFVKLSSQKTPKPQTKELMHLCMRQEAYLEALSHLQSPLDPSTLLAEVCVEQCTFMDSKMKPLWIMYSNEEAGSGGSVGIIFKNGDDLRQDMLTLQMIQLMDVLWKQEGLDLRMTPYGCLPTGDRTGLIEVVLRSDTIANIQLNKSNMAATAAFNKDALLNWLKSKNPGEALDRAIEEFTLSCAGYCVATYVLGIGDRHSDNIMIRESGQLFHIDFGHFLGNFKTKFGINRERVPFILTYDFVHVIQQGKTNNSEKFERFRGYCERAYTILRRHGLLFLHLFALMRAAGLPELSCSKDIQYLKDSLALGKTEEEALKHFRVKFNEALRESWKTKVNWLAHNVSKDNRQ
T2 sequence (P27986 whole entry, further chain): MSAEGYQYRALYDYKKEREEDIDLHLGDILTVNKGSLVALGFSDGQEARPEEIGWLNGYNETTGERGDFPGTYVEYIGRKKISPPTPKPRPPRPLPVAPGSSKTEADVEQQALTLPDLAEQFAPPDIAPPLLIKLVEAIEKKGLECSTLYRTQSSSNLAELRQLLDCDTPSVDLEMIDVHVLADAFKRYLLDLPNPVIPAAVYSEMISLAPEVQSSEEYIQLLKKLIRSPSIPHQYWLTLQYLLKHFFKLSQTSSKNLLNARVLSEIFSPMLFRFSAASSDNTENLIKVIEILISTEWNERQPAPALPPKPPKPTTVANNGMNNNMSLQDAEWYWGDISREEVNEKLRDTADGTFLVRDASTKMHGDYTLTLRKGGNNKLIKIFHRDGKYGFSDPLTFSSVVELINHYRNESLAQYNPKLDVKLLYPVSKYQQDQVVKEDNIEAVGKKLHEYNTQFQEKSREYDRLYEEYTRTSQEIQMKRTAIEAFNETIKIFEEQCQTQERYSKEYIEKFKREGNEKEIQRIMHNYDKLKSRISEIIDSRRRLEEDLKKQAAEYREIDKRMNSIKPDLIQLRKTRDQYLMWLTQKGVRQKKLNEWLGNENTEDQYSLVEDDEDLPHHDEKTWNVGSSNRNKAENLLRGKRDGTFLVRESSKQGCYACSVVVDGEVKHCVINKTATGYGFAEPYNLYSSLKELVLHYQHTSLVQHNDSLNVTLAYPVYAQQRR
T3 sequence (P42338 whole entry): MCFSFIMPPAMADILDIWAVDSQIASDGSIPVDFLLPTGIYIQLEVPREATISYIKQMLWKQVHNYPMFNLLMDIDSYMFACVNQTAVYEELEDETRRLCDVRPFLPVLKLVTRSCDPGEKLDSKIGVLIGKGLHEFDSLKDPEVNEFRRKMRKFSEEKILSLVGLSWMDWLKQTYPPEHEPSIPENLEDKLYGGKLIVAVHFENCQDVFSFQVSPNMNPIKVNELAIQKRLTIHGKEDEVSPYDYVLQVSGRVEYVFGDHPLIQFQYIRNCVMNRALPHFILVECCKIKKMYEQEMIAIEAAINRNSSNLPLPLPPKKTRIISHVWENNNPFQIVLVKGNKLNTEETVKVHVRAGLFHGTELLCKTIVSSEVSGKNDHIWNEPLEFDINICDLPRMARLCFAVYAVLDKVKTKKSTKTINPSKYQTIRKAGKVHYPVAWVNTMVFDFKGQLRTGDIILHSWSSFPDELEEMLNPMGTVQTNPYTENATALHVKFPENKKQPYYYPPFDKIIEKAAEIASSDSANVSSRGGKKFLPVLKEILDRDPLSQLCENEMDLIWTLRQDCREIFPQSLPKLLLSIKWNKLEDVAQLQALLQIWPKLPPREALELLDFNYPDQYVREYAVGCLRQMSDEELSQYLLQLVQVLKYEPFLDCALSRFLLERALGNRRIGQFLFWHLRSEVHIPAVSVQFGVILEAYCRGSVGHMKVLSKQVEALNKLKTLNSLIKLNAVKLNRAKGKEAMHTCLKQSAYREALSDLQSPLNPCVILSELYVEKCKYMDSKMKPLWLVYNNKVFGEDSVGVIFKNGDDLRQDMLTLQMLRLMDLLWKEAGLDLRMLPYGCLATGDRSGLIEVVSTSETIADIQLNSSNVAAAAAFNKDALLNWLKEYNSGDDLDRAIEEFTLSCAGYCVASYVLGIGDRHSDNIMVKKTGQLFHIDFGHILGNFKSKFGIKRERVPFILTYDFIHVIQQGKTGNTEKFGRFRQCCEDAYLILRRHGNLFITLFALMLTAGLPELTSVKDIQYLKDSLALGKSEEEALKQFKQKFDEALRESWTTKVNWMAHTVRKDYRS
T3 sequence (P27986 whole entry, further chain): as the sequence (P27986 whole entry, further chain) above
T1 sequence (P42336 whole entry): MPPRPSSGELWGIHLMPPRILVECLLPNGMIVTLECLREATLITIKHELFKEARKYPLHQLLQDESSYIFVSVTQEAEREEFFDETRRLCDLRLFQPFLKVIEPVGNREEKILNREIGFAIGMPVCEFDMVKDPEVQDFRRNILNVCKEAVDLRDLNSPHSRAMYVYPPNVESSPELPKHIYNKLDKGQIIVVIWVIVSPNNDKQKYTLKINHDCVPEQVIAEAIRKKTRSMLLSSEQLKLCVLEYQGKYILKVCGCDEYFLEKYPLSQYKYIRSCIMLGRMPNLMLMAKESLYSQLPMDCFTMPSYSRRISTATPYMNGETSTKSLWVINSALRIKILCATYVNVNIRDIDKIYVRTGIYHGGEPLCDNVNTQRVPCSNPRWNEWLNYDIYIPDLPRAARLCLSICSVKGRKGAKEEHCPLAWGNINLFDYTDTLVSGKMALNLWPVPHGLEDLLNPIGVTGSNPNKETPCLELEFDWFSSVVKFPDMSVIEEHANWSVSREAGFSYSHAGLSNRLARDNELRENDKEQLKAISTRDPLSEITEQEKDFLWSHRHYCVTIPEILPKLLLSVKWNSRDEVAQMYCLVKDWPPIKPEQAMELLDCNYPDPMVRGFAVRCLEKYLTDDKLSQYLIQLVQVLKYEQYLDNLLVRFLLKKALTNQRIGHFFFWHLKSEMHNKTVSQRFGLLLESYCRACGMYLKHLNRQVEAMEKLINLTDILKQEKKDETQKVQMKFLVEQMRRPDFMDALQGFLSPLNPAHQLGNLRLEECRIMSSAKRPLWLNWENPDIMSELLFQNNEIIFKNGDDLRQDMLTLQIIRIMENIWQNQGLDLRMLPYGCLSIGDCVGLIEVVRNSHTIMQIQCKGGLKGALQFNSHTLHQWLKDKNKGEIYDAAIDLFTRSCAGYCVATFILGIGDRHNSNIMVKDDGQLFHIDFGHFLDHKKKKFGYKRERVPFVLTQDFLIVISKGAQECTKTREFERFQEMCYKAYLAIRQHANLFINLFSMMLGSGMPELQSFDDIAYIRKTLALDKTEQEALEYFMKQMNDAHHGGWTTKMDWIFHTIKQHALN
T1 sequence (P27986 whole entry partner): as the sequence (P27986 whole entry, further chain) above
T4 sequence (P48736 whole entry): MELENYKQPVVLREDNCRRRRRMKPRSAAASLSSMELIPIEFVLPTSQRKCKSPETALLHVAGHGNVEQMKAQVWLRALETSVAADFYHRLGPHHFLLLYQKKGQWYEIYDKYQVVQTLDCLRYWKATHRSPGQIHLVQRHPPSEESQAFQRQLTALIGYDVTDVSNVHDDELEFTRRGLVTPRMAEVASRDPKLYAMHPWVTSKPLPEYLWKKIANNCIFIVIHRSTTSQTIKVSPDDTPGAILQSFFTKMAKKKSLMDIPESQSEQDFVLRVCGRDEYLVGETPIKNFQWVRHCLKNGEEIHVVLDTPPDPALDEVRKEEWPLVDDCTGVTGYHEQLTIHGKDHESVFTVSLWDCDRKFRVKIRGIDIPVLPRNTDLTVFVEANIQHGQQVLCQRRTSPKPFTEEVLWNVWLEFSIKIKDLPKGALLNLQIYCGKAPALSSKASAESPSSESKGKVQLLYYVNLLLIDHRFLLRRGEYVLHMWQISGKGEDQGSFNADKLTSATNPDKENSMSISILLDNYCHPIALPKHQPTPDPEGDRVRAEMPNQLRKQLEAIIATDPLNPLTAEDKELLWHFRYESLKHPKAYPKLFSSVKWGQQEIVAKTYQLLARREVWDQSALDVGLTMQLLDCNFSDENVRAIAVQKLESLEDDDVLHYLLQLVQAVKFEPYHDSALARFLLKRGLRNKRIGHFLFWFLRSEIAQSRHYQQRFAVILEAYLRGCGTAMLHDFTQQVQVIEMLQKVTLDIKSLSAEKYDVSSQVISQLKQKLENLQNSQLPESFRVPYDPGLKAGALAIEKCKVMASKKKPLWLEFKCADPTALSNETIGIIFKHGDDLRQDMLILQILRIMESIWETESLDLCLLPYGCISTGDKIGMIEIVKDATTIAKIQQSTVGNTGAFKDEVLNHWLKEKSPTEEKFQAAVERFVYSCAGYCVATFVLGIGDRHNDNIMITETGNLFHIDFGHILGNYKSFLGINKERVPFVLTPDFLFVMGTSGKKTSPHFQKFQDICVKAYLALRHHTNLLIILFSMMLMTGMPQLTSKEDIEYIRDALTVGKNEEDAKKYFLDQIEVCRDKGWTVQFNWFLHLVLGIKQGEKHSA

As to `c1cc(-c2cc(N3CCOCC3)n3nc(CN4CC(N5CCOCC5)C4)cc3n2)c2cc[nH]c2c1` [Example 25, 5-(1H-indol-4-yl)-2-((3-(morpholin-4-yl)azetidin-1-yl)methyl)-7-(morpholin-4-yl)pyrazolo[1,5-a]-pyrimidine], the IC50 – broadly, the point on the concentration scale where inhibition reaches its midpoint – at PI3Kα was more than 1000 nM; against PI3Kδ, less than 100 nM; against PI3Kβ it was more than 1000 nM; on PI3Kγ it was more than 1000 nM.
For the molecule `CC(C)(O)C1CCN(Cc2cc3nc(-c4c(F)ccc5[nH]ccc45)cc(N4CCOCC4)n3n2)CC1` [Example 7, 2-((4-(2-hydroxypropan-2-yl)-piperidin-1-yl)methyl)-5-(5-fluoro-1H-indol-4-yl)-7-(morpholin-4-yl)-pyrazolo[1,5-a]pyrimidine], the IC50 was more than 1000 nM against PI3Kα, less than 100 nM at PI3Kδ (setting [1]), more than 1000 nM on PI3Kβ (setting [2]) and more than 1000 nM at PI3Kγ (setting [3]).
Take `CC(C)(C)N1CCN(Cc2cc3nc(-n4c(C(F)F)nc5cnccc54)cc(N4CCOCC4)n3n2)CC1` [Example 62, 5-(2-(difluoromethyl)imidazo[4,5-c]pyridin-1-yl)-2-((4-tert-butylpiperazin-1-yl)methyl)-7-(morpholin-4-yl)pyrazolo[1,5-a]-pyrimidine]: the 50% inhibitory concentration (IC50) at PI3Kα was more than 1000 nM; at PI3Kδ (setting [1]), 100 to 1000 nM; at PI3Kβ (setting [2]) it was more than 1000 nM; on PI3Kγ (setting [3]) it was more than 1000 nM.
For `CC(C)(C)N1CCN(Cc2cc3nc(-c4ccnc5[nH]ccc45)cc(N4CCOCC4)n3n2)CC1` [Example 32, 5-(1H-7-azaindol-4-yl)-2-((4-tert-butylpiperazin-1-yl)methyl)-7-(morpholin-4-yl)pyrazolo[1,5-a]-pyrimidine], the IC50 against PI3Kα was more than 1000 nM; on PI3Kδ (setting [1]), less than 100 nM; on PI3Kβ (setting [2]), more than 1000 nM.
As to `FC(F)c1nc2ccccc2n1-c1cc(N2CCOCC2)n2nc(CN3CC(N4CCOCC4)C3)cc2n1` [Example 64, 5-(2-(difluoromethyl)benzimidazol-1-yl)-2-((3-(morpholin-4-yl)-azetidin-1-yl)methyl)-7-(morpholin-4-yl)pyrazolo[1,5-a]pyrimidine], the IC50 is 100 to 1000 nM on PI3Kα, less than 100 nM on PI3Kδ (setting [1]), more than 1000 nM on PI3Kβ (setting [2]) and more than 1000 nM on PI3Kγ (setting [3]).
Take `O=C(C1CC1)N1CCN(Cc2cc3nc(-c4cccc5[nH]ccc45)cc(N4CCOCC4)n3n2)CC1` [Example 1, 2-((4-(cyclopropanecarbonyl)piperazin-1-yl)methyl)-5-(1H-indol-4-yl)-7-(morpholin-4-yl)pyrazolo[1,5-a]pyrimidine]: the IC50 at PI3Kα was more than 1000 nM; on PI3Kδ (setting [1]) it was less than 100 nM; on PI3Kβ (setting [2]), more than 1000 nM; at PI3Kγ (setting [3]), 100 to 1000 nM.
`CC(C)(O)C1CCN(Cc2cc3nc(-c4ccc(N)nc4)cc(N4CCOCC4)n3n2)CC1` [Example 19, 5-(2-aminopyridin-5-yl)-2-((4-(2-hydroxypropan-2-yl)piperidin-1-yl)methyl)-7-(morpholin-4-yl)-pyrazolo[1,5-a]pyrimidine]: the IC50 was more than 1000 nM on PI3Kα, less than 100 nM on PI3Kδ (setting [1]), more than 1000 nM on PI3Kβ (setting [2]) and more than 1000 nM at PI3Kγ (setting [3]).
Regarding `Cc1c(CN2CCN(C(C)(C)C)CC2)nn2c(N3CCOCC3)cc(-n3c(C(F)F)nc4ccccc43)nc12` [Example 68, 5-(2-(difluoromethyl)benzimidazol-1-yl)-3-methyl-2-((4-tert-butylpiperazin-1-yl)methyl)-7-(morpholin-4-yl)pyrazolo[1,5-a]-pyrimidine], the IC50 was 100 to 1000 nM against PI3Kα, less than 100 nM at PI3Kδ (setting [1]), more than 1000 nM at PI3Kβ (setting [2]) and more than 1000 nM on PI3Kγ (setting [3]).
`CCN1CCN(Cc2cc3nc(-c4cccc5[nH]ccc45)cc(N4CCOCC4)n3n2)CC1` [Example 22, 2-((4-ethylpiperazin-1-yl)methyl)-5-(1H-indol-4-yl)-7-(morpholin-4-yl)pyrazolo[1,5-a]pyrimidine]: the IC50 against PI3Kα is more than 1000 nM; at PI3Kδ, less than 100 nM; against PI3Kβ, more than 1000 nM; at PI3Kγ, more than 1000 nM.
As to `CC(C)(C)C1CCN(Cc2cc3nc(-c4cccc5[nH]ccc45)cc(N4CCOCC4)n3n2)CC1` [Example 28, 2-((4-tert-butylpiperidin-1-yl)-methyl)-5-(1H-indol-4-yl)-7-(morpholin-4-yl)pyrazolo[1,5-a]-pyrimidine], the IC50 was more than 1000 nM on PI3Kα, less than 100 nM against PI3Kδ, more than 1000 nM against PI3Kβ and more than 1000 nM at PI3Kγ.
With `CN(C)C1CCN(Cc2cc3nc(-c4c(F)ccc5[nH]ccc45)cc(N4CCOCC4)n3n2)CC1` [Example 13, 2-((4-(dimethylamino)piperidin-1-yl)methyl)-5-(5-fluoro-1H-indol-4-yl)-7-(morpholin-4-yl)pyrazolo[1,5-a]pyrimidine], the IC50 at PI3Kα was more than 1000 nM; on PI3Kδ (setting [1]), less than 100 nM; on PI3Kβ (setting [2]) it was more than 1000 nM; on PI3Kγ (setting [3]) it was more than 1000 nM.
Regarding `CC(C)(C)N1CCN(Cc2cc3nc(-c4cncc5[nH]ccc45)cc(N4CCOCC4)n3n2)CC1` [Example 30, 5-(1H-6-azaindol-4-yl)-2-((4-tert-butylpiperazin-1-yl)methyl)-7-(morpholin-4-yl)pyrazolo[1,5-a]-pyrimidine], the IC50 at PI3Kα was more than 1000 nM; at PI3Kδ it was less than 100 nM; against PI3Kβ, more than 1000 nM; at PI3Kγ, more than 1000 nM.
Regarding `CC(C)(O)C1CCN(Cc2cc3nc(-n4c(C(F)F)nc5ccccc54)cc(N4CCOCC4)n3n2)CC1` [Example 51, 5-(2-(difluoromethyl)benzimidazol-1-yl)-2-((4-(2-hydroxypropan-2-yl)piperidin-1-yl)methyl)-7-(morpholin-4-yl)pyrazolo[1,5-a]-pyrimidine], the half-inhibitory concentration (IC50) is more than 1000 nM against PI3Kα, less than 100 nM at PI3Kδ (setting [1]), more than 1000 nM on PI3Kβ (setting [2]) and more than 1000 nM at PI3Kγ (setting [3]).
For `FC(F)c1nc2ccccc2n1-c1cc(N2CCOCC2)n2nc(CN3CC(N4CCC(F)(F)CC4)C3)cc2n1` [Example 66, 5-(2-(difluoromethyl)benzimidazol-1-yl)-2-((3-(4,4-difluoropiperidin-1-yl)azetidin-1-yl)methyl)-7-(morpholin-4-yl)pyrazolo[1,5-a]-pyrimidine], the IC50 was 100 to 1000 nM on PI3Kα, less than 100 nM on PI3Kδ (setting [1]), more than 1000 nM on PI3Kβ (setting [2]) and more than 1000 nM at PI3Kγ (setting [3]).
For the molecule `O=S1(=O)CCN(C2CN(Cc3cc4nc(-c5cccc6[nH]ccc56)cc(N5CCOCC5)n4n3)C2)CC1` [Example 31, 5-(1H-indol-4-yl)-2-((3-(1,1-dioxothiomorpholin-4-yl)azetidin-1-yl)methyl)-7-(morpholin-4-yl)-pyrazolo[1,5-a]pyrimidine], the IC50 is more than 1000 nM at PI3Kα, less than 100 nM against PI3Kδ, more than 1000 nM on PI3Kβ and more than 1000 nM on PI3Kγ.
As for `CC(C)(O)C1CCN(Cc2cc3nc(-c4cncc5[nH]ccc45)cc(N4CCOCC4)n3n2)CC1` [Example 29, 5-(1H-6-azaindol-4-yl)-2-((4-(2-hydroxypropan-2-yl)piperidin-1-yl)methyl)-7-(morpholin-4-yl)-pyrazolo[1,5-a]pyrimidine], the IC50 at PI3Kα is more than 1000 nM; at PI3Kδ (setting [1]) it was less than 100 nM; on PI3Kβ (setting [2]), more than 1000 nM.
`CN1CCN(C2CCN(Cc3cc4nc(-c5cccc6[nH]ccc56)cc(N5CCOCC5)n4n3)CC2)CC1` [Example 3, 5-(1H-indol-4-yl)-2-((4-(4-methylpiperazin-1-yl)piperidin-1-yl)methyl)-7-(morpholin-4-yl)pyrazolo[1,5-a] pyrimidine]: the 50% inhibitory concentration (IC50) is more than 1000 nM against PI3Kα and less than 100 nM at PI3Kδ.
As for `c1cc(-c2cc(N3CCOCC3)n3nc(CN4CCN(C5CC5)CC4)cc3n2)c2cc[nH]c2c1` [Example 20, 2-((4-cyclopropyl-piperazin-1-yl)-methyl)-5-(1H-indol-4-yl)-7-(morpholin-4-yl)pyrazolo[1,5-a]-pyrimidine], the figures for the IC50 at PI3Kα, at PI3Kδ and on PI3Kβ were more than 1000 nM, less than 100 nM and more than 1000 nM, respectively.
On to `CCc1nc2ccccc2n1-c1cc(N2CCOCC2)n2nc(CN3CCC(N(C)C)CC3)cc2n1` [Example 43, 5-(2-ethylbenzimidazo-1-yl)-2-((4-(dimethylamino)piperidin-1-yl)-methyl)-7-(morpholin-4-yl)-pyrazolo[1,5-a]pyrimidine], for which the IC50 at PI3Kα is more than 1000 nM; at PI3Kδ (setting [1]), 100 to 1000 nM.
